Converted amounts (≈) assume the structure as drawn.

Common to all, as to type: functional
One test deals with Pichia kudriavzevii. As to the kind of experiment: Antifungal activity against Candida krusei ATCC 6258 after 48 hrs by serial dilution method. The conditions noted are these: ATCC 6258, 48 h.
In another test the test system is Pseudomonas aeruginosa. The test can be described thus: Antibacterial activity against Pseudomonas aeruginosa ATCC 10145 after 24 hrs by serial dilution method. Conditions: ATCC 10145, 24 h.
Another test has as its system Escherichia coli. The test can be described thus: Antibacterial activity against Escherichia coli ATCC 23556 after 24 hrs by serial dilution method. Conditions: ATCC 23556, 24 h.
Another test deals with Bacillus subtilis. As to the kind of experiment: Antibacterial activity against Bacillus subtilis ATCC 6633 after 24 hrs by serial dilution method. The conditions noted are these: ATCC 6633, 24 h.
The next test relates to Staphylococcus aureus. The test can be described thus: Antibacterial activity against Staphylococcus aureus ATCC 25923 after 24 hrs by serial dilution method. Conditions: ATCC 25923, 24 h.
The next test concerns Candida albicans. The test can be described thus: Antifungal activity against Candida albicans after 48 hrs by serial dilution method.
In a further test the test system is Nakaseomyces glabratus. The test can be described thus: Antifungal activity against Candida glabrata after 48 hrs by serial dilution method.

For the compound `Cc1ccc(C(=O)Nc2ccc3oc(Cc4ccc(Cl)cc4)nc3c2)cc1C`, the MIC (as a rule, the least concentration at which growth counts as inhibited) against Pichia kudriavzevii amounted to 12.5 µg/mL (≈ 32 µM); against Pseudomonas aeruginosa, 50 µg/mL (≈ 128 µM); with Escherichia coli, 50 µg/mL (≈ 128 µM); with Bacillus subtilis it was 25 µg/mL (≈ 64 µM); in the test with Staphylococcus aureus it was 12.5 µg/mL (≈ 32 µM); in the test on Candida albicans, 100 µg/mL (≈ 256 µM). Further, 50 µg/mL (≈ 128 µM) was the least that counted as inhibitory against Nakaseomyces glabratus (MIC).
Consider `Cc1ccc(CC(=O)Nc2ccc3oc(Cc4ccccc4)nc3c2)cc1`, for which the MIC against Pichia kudriavzevii turned out to be 6.25 µg/mL (≈ 17.5 µM); against Pseudomonas aeruginosa it was 25 µg/mL (≈ 70.1 µM); against Escherichia coli, 25 µg/mL (≈ 70.1 µM); against Bacillus subtilis, 25 µg/mL (≈ 70.1 µM); with Staphylococcus aureus, 25 µg/mL (≈ 70.1 µM); against Candida albicans it was 25 µg/mL (≈ 70.1 µM). Further, the MIC with Nakaseomyces glabratus was determined as 12.5 µg/mL (≈ 35.1 µM).
With `O=C(Cc1ccc(F)cc1)Nc1ccc2oc(Cc3ccc(Cl)cc3)nc2c1`, the MIC was 25 µg/mL (≈ 63.3 µM) against Pichia kudriavzevii; 25 µg/mL (≈ 63.3 µM) in the test on Pseudomonas aeruginosa; 50 µg/mL (≈ 127 µM) in the test with Escherichia coli; 100 µg/mL (≈ 253 µM) against Bacillus subtilis; 12.5 µg/mL (≈ 31.7 µM) in the test with Staphylococcus aureus; 50 µg/mL (≈ 127 µM) in the test with Candida albicans. The MIC against Nakaseomyces glabratus stood at 50 µg/mL (≈ 127 µM).
On to `O=C(Cc1ccc([N+](=O)[O-])cc1)Nc1ccc2oc(Cc3ccc(Cl)cc3)nc2c1`, for which the MIC with Pichia kudriavzevii came out at 25 µg/mL (≈ 59.3 µM); against Pseudomonas aeruginosa it was 25 µg/mL (≈ 59.3 µM); in the test on Escherichia coli it was 50 µg/mL (≈ 119 µM); against Bacillus subtilis, 50 µg/mL (≈ 119 µM); in the test on Staphylococcus aureus, 50 µg/mL (≈ 119 µM); against Candida albicans it was 12.5 µg/mL (≈ 29.6 µM). Also, the MIC against Nakaseomyces glabratus was determined as 25 µg/mL (≈ 59.3 µM).
As to `Cc1ccc(C(=O)Nc2ccc3oc(Cc4ccccc4)nc3c2)cc1C`, the MIC in the test with Pichia kudriavzevii amounted to 50 µg/mL (≈ 140 µM); against Pseudomonas aeruginosa, 25 µg/mL (≈ 70.1 µM); against Escherichia coli it was 50 µg/mL (≈ 140 µM); against Bacillus subtilis it was 50 µg/mL (≈ 140 µM); against Staphylococcus aureus, 50 µg/mL (≈ 140 µM); against Candida albicans, 25 µg/mL (≈ 70.1 µM). The MIC in the test on Nakaseomyces glabratus amounted to 50 µg/mL (≈ 140 µM).
`O=C(Nc1ccc2oc(Cc3ccc(Cl)cc3)nc2c1)c1ccc([N+](=O)[O-])cc1`: the MIC in the test with Pichia kudriavzevii was 25 µg/mL (≈ 61.3 µM); in the test with Pseudomonas aeruginosa, 25 µg/mL (≈ 61.3 µM); against Escherichia coli, 25 µg/mL (≈ 61.3 µM); with Bacillus subtilis it was 50 µg/mL (≈ 123 µM); against Staphylococcus aureus, 100 µg/mL (≈ 245 µM); against Candida albicans, 50 µg/mL (≈ 123 µM). The compound also showed an MIC in the test on Nakaseomyces glabratus of 25 µg/mL (≈ 61.3 µM).
For `CC(C)(C)c1ccc(C(=O)Nc2ccc3oc(Cc4ccc(Cl)cc4)nc3c2)cc1`, the MIC in the test on Pichia kudriavzevii was 50 µg/mL (≈ 119 µM); in the test on Pseudomonas aeruginosa, 50 µg/mL (≈ 119 µM); against Escherichia coli it was 50 µg/mL (≈ 119 µM); against Bacillus subtilis it was 50 µg/mL (≈ 119 µM); in the test on Staphylococcus aureus it was 25 µg/mL (≈ 59.7 µM); against Candida albicans, 50 µg/mL (≈ 119 µM). In addition, the minimal inhibitory concentration (MIC) in the test with Nakaseomyces glabratus came out at 50 µg/mL (≈ 119 µM).
`O=C(Cc1ccc(Br)cc1)Nc1ccc2oc(Cc3ccc(Cl)cc3)nc2c1`: the MIC against Pichia kudriavzevii was 25 µg/mL (≈ 54.9 µM); in the test on Pseudomonas aeruginosa it was 50 µg/mL (≈ 110 µM); in the test with Escherichia coli it was 50 µg/mL (≈ 110 µM); with Bacillus subtilis, 25 µg/mL (≈ 54.9 µM); against Staphylococcus aureus it was 50 µg/mL (≈ 110 µM); against Candida albicans, 12.5 µg/mL (≈ 27.4 µM). This compound also came in with an MIC with Nakaseomyces glabratus of 50 µg/mL (≈ 110 µM).
As to `O=C(CSc1ccccc1)Nc1ccc2oc(Cc3ccccc3)nc2c1`, the MIC is 25 µg/mL (≈ 66.8 µM) in the test with Pichia kudriavzevii; 25 µg/mL (≈ 66.8 µM) in the test with Pseudomonas aeruginosa; 50 µg/mL (≈ 134 µM) in the test with Escherichia coli; 50 µg/mL (≈ 134 µM) with Bacillus subtilis; 100 µg/mL (≈ 267 µM) against Staphylococcus aureus; 25 µg/mL (≈ 66.8 µM) against Candida albicans. The same compound yielded an MIC against Nakaseomyces glabratus of 25 µg/mL (≈ 66.8 µM).
Take `Cc1ccc(C)c(C(=O)Nc2ccc3oc(Cc4ccc(Cl)cc4)nc3c2)c1`: the MIC in the test on Pichia kudriavzevii was 12.5 µg/mL (≈ 32 µM); with Pseudomonas aeruginosa, 50 µg/mL (≈ 128 µM); against Escherichia coli, 12.5 µg/mL (≈ 32 µM); against Bacillus subtilis, 12.5 µg/mL (≈ 32 µM); against Staphylococcus aureus, 50 µg/mL (≈ 128 µM); in the test on Candida albicans, 6.25 µg/mL (≈ 16 µM). Moreover, the minimum inhibitory concentration (MIC) in the test on Nakaseomyces glabratus was determined as 25 µg/mL (≈ 64 µM).

The values above are taken from ChEMBL document CHEMBL1147878, “Synthesis and in vitro antimicrobial activity of new 2-[p-substituted-benzyl]-5-[substituted-carbonylamino]benzoxazoles” (2007).
